Source: patent US8114904B2, “Luminescence quenchers and fluorogenic probes for detection of reactive species” (Versitech Limited & Morningside Ventures Limited, priority 2008, dated 2012)

Columns and labels:
[1] = Comparison of specificity with different ROS and RNS; details: for fluorescence enhancement by peroxynitrite compared with any other ROS and RNS: 25° C.
Protocol: The reactivity of Compound 10 was compared toward different reactive oxygen species (ROS) and reactive nitrogen species (RNS), including OCl^−, H2O2, ^1O2, NO, O2^•−, ^•OH, ONOO^− and alkylperoxyl radical (ROO^•). Different reactive oxygen species and reactive nitrogen species were added independently to 5 mL of the solution of Compound 10 (10 μM in 0.1 M potassium phosphate buffer). The changes of fluorescence intensity before and after the treatment were measured. The reactive oxygen species and reactive nitrogen species were prepared as follows. • a. H2O2 (final 100 μM) was added and then stirred for 1 hour at 25° C. • b. (3-(1,4-Dihydro-1,4-epidioxy-1-naphthyl)propionic acid) (final 100 μM) was added and then stirred at 25° C. for 1 hour. • c. 2,2′-Azobis(2-amidinopropane)dihydrochloride (final 100 μM) was added and then stirred at 25° C. for 1 hour. • d. SNP (Sodium Nitroferricyanide (III) Dihydrate) (final 100 μM) was added and then stirred for 1 hour at 25° C. • e. O2^•− was generated by xanthine and xanthine oxidase. Xanthine oxidase was added firstly. After xanthine oxidase was dissolved, xanthine (final 100 μM) was added and the mixtures were stirred at 25° C. for 1 hour. • f. Ferrous chloride (final 10 μM) was added in the presence of 10 equivalences of H2O2 (100 μM). • g. ONOO^− (final 10 μM) was added at 25° C. • h. NaOCl (final 10 μM) was added at 25° C. Commercial bleach was the source of NaOCl.
The reactivity of Compound 12 was compared toward different reactive oxygen species (ROS) and reactive nitrogen species (RNS), including OCl^−, H2O2, ^1O2, NO, O2^•−, ^•OH, ONOO^− and alkylperoxyl radical (ROO^•). Different reactive oxygen species and reactive nitrogen species were added independently to 5 mL of the solution of Compound 12 (1 μM in 0.1 M potassium phosphate buffer). The changes of fluorescence intensity before and after the treatment were measured. The reactive oxygen species and reactive nitrogen species were prepared as follows: • i. H2O2 (final 100 μM) was added and then stirred for 1 hour at 25° C. • j. (3-(1,4-Dihydro-1,4-epidioxy-1-naphthyl)propionic acid) (final 100 μM) was added and then stirred at 25° C. for 1 hour. • k. 2,2′-Azobis(2-amidinopropane)dihydrochloride (final 100 μM) was added and then stirred at 25° C. for 1 hour. • l. SNP (Sodium Nitroferricyanide (III) Dihydrate) (final 100 μM) was added and then stirred for 1 hour at 25° C. • m. O2^•− was generated by xanthine and xanthine oxidase. Xanthine oxidase was added firstly. After xanthine oxidase was dissolved, xanthine (final 100 μM) was added and the mixtures were stirred at 25° C. for 1 hour. • n. Ferrous chloride (final 10 μM) was added in the presence of 10 equivalences of H2O2 (100 μM). • o. ONOO^− (final 10 μM) was added at 25° C. • p. NaOCl (final 10 μM) was added at 25° C. Commercial bleach was the source of NaOCl.
The reactivity of Compound 14 was compared toward different reactive oxygen species (ROS) and reactive nitrogen species (RNS), including OCl^−, H2O2, ^1O2, NO, O2^•−, ^•OH, ONOO^− and alkylperoxyl radical (ROO^•). Different reactive oxygen species and reactive nitrogen species were added independently to 5 mL of the corresponding solution of Compound 14 (1 μM in 0.1 M potassium phosphate buffer). The changes in fluorescence intensity before and after the treatment were measured. The reactive oxygen species and reactive nitrogen species were prepared as follows: • a. H2O2 (final 100 μM) was added and then stirred for 1 hour at 25° C. • b. (3-(1,4-Dihydro-1,4-epidioxy-1-naphthyl)propionic acid) (final 100 μM) was added and then stirred at 25° C. for 1 hour. • c. 2,2′-Azobis(2-amidinopropane)dihydrochloride (final 100 μM) was added and then stirred at 25° C. for 1 hour. • d. SNP (Sodium Nitroferricyanide (III) Dihydrate) (final 100 μM) was added and then stirred for 1 hour at 25° C. • e. O2^•− was generated by xanthine and xanthine oxidase. Xanthine oxidase was added firstly. […]

[2] = UV-visible absorption spectrum; type: physicochemical; details: pH 7.4 0.1 M phosphate buffer, 0.1% DMF
Protocol: Compound 10 obtained in Example 4 was dissolved in pH 7.4 0.1 M phosphate buffer containing 0.1% DMF as cosolvent to form a 10 μM solution.
Compound 12 obtained in Example 5 was dissolved in pH 7.4 0.1 M phosphate buffer containing 0.1% DMF as cosolvent to form a 1 μM solution.
Compound 14 obtained in Example 6 was dissolved in pH 7.4 0.1 M phosphate buffer containing 0.1% DMF as cosolvent to form a 1 μM solution.
Compound 30 obtained in Example 7 was dissolved in pH 7.4 0.1 M phosphate buffer containing 0.1% DMF as cosolvent to form a 10 μM solution. The absorption spectrum of the 10 μM solution of Compound 30 was measured.

[3] = 10 μM probe in 0.1 M potassium phosphate buffer
[4] = 1 μM probe in 0.1 M potassium phosphate buffer

absorption maximum ([2]; 10 μM solution)	absorption maximum ([2]; 1 μM solution)	SMILES	reactivity among ROS and RNS in an abiotic system [1, 3]	fluorescence enhancement by peroxynitrite compared with any other ROS and RNS [1, 3]	reactivity among ROS and RNS in an abiotic system [1, 4]	fluorescence enhancement by peroxynitrite compared with any other ROS and RNS [1, 4]
about 520 nm	–	CN(c1ccc(CCC(=O)C(F)(F)F)cc1)c1cc2c(cc1Cl)C1(OC(=O)c3ccccc31)c1cc(Cl)c(O)cc1O2 (stereo not drawn) [Compound 10]	much higher reactivity towards peroxynitrite	much stronger fluorescence enhancement	–	–
–	about 515 nm	CN(c1ccc(O)cc1)c1ccc2c(c1)Oc1cc(O)ccc1C21OC(=O)c2ccccc21 (stereo not drawn) [Compound 12]	–	–	much higher reactivity towards peroxynitrite	much stronger fluorescence enhancement
